In patent US20200397796A1, “METHODS OF TREATMENT OF CANCER COMPRISING CHK1 INHIBITORS” (SIERRA ONCOLOGY, INC., priority 2018, published 2020):
“And” between values parts separate entries of the source, which are not always exact repeats. Equal values may be shown once. Read-outs that look alike come from different tables or passages of the source.

Assays:
[1] = mouse, in vivo, po
OVCAR3 model of HGSOC = test: In vivo efficacy, OVCAR3 CDX model; design: species or system mouse; conditions: data not shown
Protocol: (§1) A program of in vivo efficacy studies was performed to assess the activity of SRA737 in combination with genotoxic chemotherapy and targeted agents, and as monotherapy.
(§2) One of these models also carried a MYCN amplification. A fourth HGSOC PDX model with partial resistance to PARPi was also sensitive to high dose SRA737 monotherapy.

Chk1 = biological target: T1, Chk1 (Homo sapiens, UniProt O14757); conditions: limited off-target activity against other kinases; Walton et al.; cited from earlier work
T1 construct: endogenous in cells
T1 sequence (O14757 1-476): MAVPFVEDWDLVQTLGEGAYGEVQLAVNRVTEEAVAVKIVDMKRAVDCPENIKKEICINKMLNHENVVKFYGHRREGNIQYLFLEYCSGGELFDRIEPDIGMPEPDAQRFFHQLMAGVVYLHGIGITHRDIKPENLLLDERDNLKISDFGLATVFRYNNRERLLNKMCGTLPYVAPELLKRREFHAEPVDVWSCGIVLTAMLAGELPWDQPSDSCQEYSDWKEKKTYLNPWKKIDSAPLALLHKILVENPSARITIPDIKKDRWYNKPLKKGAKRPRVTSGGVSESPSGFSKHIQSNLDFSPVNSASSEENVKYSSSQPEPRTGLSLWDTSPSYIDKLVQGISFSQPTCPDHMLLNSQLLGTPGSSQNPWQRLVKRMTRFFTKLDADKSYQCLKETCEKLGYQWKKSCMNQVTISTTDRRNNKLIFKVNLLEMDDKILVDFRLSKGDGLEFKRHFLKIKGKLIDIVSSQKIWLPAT

MDA-MB-231 model of TNBC = test: In vivo efficacy, MDA-MB-231 model; design: species or system mouse; conditions: data not shown
Protocol: as §1, §2

Pan02 = test: In vivo efficacy, Pan02 syngeneic mouse model; conditions: in combination with a PD1/PD-L1 inhibitor; data not shown
Protocol: as §1, §2

CYP 3A4 = CYP 3A4 (Homo sapiens, UniProt P08684); test: CYP inhibition, 3A4; type: in vitro ADME; conditions: highest concentration investigated
human hepatocytes = test: Stability and metabolites in cryopreserved hepatocytes, human; type: in vitro ADME
Protocol: The formation of SRA737-related metabolites was determined in cryopreserved hepatocytes from human, mouse, rat, dog, minipig and monkey samples after incubation with SRA737 at a nominal concentration of 10 μM for up to 4 hours. […] In the human hepatocyte preparation, approximately 67% of the parent remained after 4 hours of incubation compared to 75% and 7% in the rat and minipig preparations, respectively. Eight human SRA737 metabolites were observed. All SRA737 metabolites formed by human hepatocytes were also formed by monkey hepatocytes. Six metabolites were present at equal or greater abundance in the monkey.

[2] = Caco-2 permeability assay; type: in vitro ADME; conditions: human
Protocol: The membrane permeability of SRA737 was assessed in the parallel artificial membrane permeability assay (PAMPA) and Caco-2 assays. Permeability in the PAMPA assay was classified as low.

CYP 1A2 = CYP 1A2 (Homo sapiens, UniProt P05177); test: CYP inhibition, 1A2; type: in vitro ADME; conditions: highest concentration investigated
[3] = Excretion in urine and feces, mice; type: in vivo, mouse; conditions: 24-hour collection
Protocol: The excretion of SRA737 has been studied in mice and rats administered SRA737 at either 5 mg/kg IV or 10 mg/kg orally. Urine and feces were collected for a 24-hour period after dosing. In mice, renal excretion of intact SRA737 was consistently low (less than 10% of dose) after both oral and IV administration. Following IV administration of SRA737, less than 8% of the dose was recovered as intact drug in the feces while after oral administration this figure was less than 3%. Excretion of intact SRA737 was lower in the rat than in the mouse with <1% of dose excreted renally over 24 hours and less than 1.5% of dose excreted into the feces over 24 hours.

LL/2 (lung cancer) = test: In vivo efficacy, LL/2 syngeneic model; design: species or system mouse; conditions: data not shown
Protocol: as §1, §2

MC38 = test: In vivo efficacy, MC38 syngeneic mouse model; conditions: in combination with a PD1/PD-L1 inhibitor; data not shown
Protocol: as §1, §2

[4] = SRA737 plasma and tumor concentrations in HT29 xenograft model; type: in vivo, mouse; design: Tumor (6 h) concentration / Tumor (24 h) concentration: unit not given here; conditions: for concentration at 6 h / concentration at 24 h: plasma
Protocol: For each dose, columns from left to right are concentrations for plasma at 6 hours, plasma at 24 hours, tumor at 6 hours, and tumor at 24 hours, respectively.
The effect of SRA737 on Gemcitabine induced CHK1 S296 autophosphorylation was assessed as described in Walton et al. (Oncotarget. 2016 Jan. 19; 7(3): 2329-2342), herein incorporated by reference for all it teaches. Briefly, mice bearing HT29 tumor xenografts were administered (i) vehicle control or (ii) gemcitabine (100 mg/kg in saline, IV) or (iii) a combination of SRA737 ([…]) and gemcitabine (100 mg/kg) with SRA737 administered 24 hours following gemcitabine administration (n=3 per time point per treatment). […] Exposure in the tumor was greater than 10-fold higher than in plasma. The circulating plasma concentration at this 24-hour timepoint corresponded to a free drug concentration of approximately 6 nM (2 ng/mL) based on plasma protein binding in mice of 94%.

KPC-1 pancreatic cancer = test: In vivo efficacy, KPC-1 model; design: species or system mouse; conditions: in combination with standard-dose gemcitabine; data not shown
Protocol: as §1, §2

[5] = tested on: patient-derived bladder carcinoma; test: In vivo efficacy, patient-derived bladder carcinoma model; design: species or system mouse; conditions: in combination with standard-dose gemcitabine; data not shown
Protocol: as §1, §2

Chain of CYP 1A2 (P05177 whole entry): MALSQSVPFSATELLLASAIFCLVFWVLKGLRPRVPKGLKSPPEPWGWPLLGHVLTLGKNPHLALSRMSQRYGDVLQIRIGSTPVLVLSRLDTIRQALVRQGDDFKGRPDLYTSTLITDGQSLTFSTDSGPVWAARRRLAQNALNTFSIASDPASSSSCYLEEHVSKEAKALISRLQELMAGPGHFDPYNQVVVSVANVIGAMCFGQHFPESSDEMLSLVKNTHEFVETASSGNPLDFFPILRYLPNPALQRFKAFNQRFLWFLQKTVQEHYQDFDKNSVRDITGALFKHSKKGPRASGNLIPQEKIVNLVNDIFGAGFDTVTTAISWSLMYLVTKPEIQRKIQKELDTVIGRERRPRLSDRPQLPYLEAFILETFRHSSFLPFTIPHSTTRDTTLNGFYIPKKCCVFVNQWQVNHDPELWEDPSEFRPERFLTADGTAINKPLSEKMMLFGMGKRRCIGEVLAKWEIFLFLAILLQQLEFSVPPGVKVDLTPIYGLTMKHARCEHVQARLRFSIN
Chain of CYP 3A4 (P08684 whole entry): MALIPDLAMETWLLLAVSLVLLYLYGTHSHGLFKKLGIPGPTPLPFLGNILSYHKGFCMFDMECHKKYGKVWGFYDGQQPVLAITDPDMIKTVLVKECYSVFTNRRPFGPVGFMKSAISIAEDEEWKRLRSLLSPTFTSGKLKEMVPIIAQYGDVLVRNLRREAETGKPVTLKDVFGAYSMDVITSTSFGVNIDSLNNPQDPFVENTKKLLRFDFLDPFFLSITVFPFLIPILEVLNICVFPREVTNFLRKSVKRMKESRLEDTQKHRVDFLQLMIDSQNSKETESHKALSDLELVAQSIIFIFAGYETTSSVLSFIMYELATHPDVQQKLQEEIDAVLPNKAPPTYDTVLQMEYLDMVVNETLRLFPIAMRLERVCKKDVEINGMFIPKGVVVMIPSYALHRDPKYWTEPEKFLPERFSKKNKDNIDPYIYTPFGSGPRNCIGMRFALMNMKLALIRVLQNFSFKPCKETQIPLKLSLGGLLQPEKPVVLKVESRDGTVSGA

**Q.** For `N#Cc1cnc(Nc2cc(NCC3CNCCO3)c(C(F)(F)F)cn2)cn1` (centres unmarked) [SRA737, 5-[[4-[[morpholin-2-yl]methylamino]-5-(trifluoromethyl)-2-pyridyl]amino]pyrazine-2-carbonitrile], which MTD [1] is on record?
**A.** Its MTD is 225 mg/m^2/day.

**Q.** And the single agent efficacy (OVCAR3 model of HGSOC; single agent)?
**A.** The single agent efficacy was “single agent efficacy”.

**Q.** What about the synergy (OVCAR3 model of HGSOC; with low-dose gemcitabine) of the same compound?
**A.** Its synergy is “Synergy”.

**Q.** And the “inhibitor of Chk1” value (Chk1)?
**A.** Its value is “potent and selective inhibitor of Chk1”.

**Q.** What about the single agent efficacy (MDA-MB-231 model of TNBC) of the same compound?
**A.** The single agent efficacy was “single agent efficacy”.

**Q.** What about the antitumor activity (Pan02) of the same compound?
**A.** The antitumor activity was “Significant antitumor activity”.

**Q.** And the IC50 (CYP 3A4)?
**A.** Its IC50 is 10 to 50 µM.

**Q.** What about the human-specific metabolites (human hepatocytes; compared with mouse, rat, dog, minipig and monkey hepatocytes) of the same compound?
**A.** Its human-specific metabolites is “No human-specific metabolites”.

**Q.** What about the “number of human SRA737 metabolites observed” value (human hepatocytes; human hepatocytes, 10 μM, up to 4 hours) of the same compound?
**A.** Its value is “Eight”.

**Q.** What about the parent remained (human hepatocytes; human hepatocytes, 10 μM, after 4 hours of incubation) of the same compound?
**A.** The parent remained was “approximately 67%”.

**Q.** And the Papp at 10 μM [2]?
**A.** Its Papp at 10 μM is 20.7 ± 9.1 ×10⁻⁶ cm/s.

**Q.** What about the efflux ratio at 10 μM ([2]; read-out: efflux ratio (A>B/B>A)) of the same compound?
**A.** The efflux ratio at 10 μM was 0.8.

**Q.** What about the IC50 (CYP 1A2) of the same compound?
**A.** The IC50 was 10 to 50 µM.

**Q.** What about the “dose recovered as intact drug in the feces” value ([3]; IV 5 mg/kg) of the same compound?
**A.** The value was “less than 8 % of the dose”.

**Q.** What about the “renal excretion of intact SRA737” value ([3]; after both oral (10 mg/kg) and IV (5 mg/kg)) of the same compound?
**A.** The value was “less than 10 % of dose”.

**Q.** What about the “dose recovered as intact drug in the feces” value ([3]; oral 10 mg/kg) of the same compound?
**A.** Its value is “less than 3 % of the dose”.

**Q.** What about the single agent efficacy (LL/2 (lung cancer)) of the same compound?
**A.** Its single agent efficacy is “single agent efficacy”.

**Q.** What about the antitumor activity (MC38) of the same compound?
**A.** The antitumor activity was “Significant antitumor activity”.

**Q.** What about the “Tumor (6 h) concentration” value ([4]; 3.125 mg/kg) of the same compound?
**A.** The value was 3183.276.

**Q.** And the “Tumor (24 h) concentration” value ([4]; 3.125 mg/kg)?
**A.** Its value is 645.7623.

**Q.** What about the “Tumor (6 h) concentration” value ([4]; 6.25 mg/kg) of the same compound?
**A.** Its value is 4011.501.

**Q.** What about the “Tumor (24 h) concentration” value ([4]; 6.25 mg/kg) of the same compound?
**A.** The value was 965.7797.

**Q.** What about the “Tumor (6 h) concentration” value ([4]; 12.5 mg/kg) of the same compound?
**A.** The value was 19009.57.

**Q.** What about the “Tumor (24 h) concentration” value ([4]; 12.5 mg/kg) of the same compound?
**A.** Its value is 3974.933.

**Q.** And the “Tumor (6 h) concentration” value ([4]; 25 mg/kg)?
**A.** Its value is 37516.

**Q.** What about the “Tumor (24 h) concentration” value ([4]; 25 mg/kg) of the same compound?
**A.** The value was 16289.53.

**Q.** What about the “Tumor (6 h) concentration” value ([4]; 50 mg/kg) of the same compound?
**A.** Its value is 76331.2.

**Q.** What about the “Tumor (24 h) concentration” value ([4]; 50 mg/kg) of the same compound?
**A.** Its value is 27483.73.

**Q.** What about the “Tumor (6 h) concentration” value ([4]; 100 mg/kg) of the same compound?
**A.** Its value is 131506.7.

**Q.** What about the “Tumor (24 h) concentration” value ([4]; 100 mg/kg) of the same compound?
**A.** The value was 101764.1.

**Q.** And the concentration at 6 h ([4]; mouse, oral, 3.125 mg/kg)?
**A.** Its concentration at 6 h is 194 nM.

**Q.** And the concentration at 24 h ([4]; mouse, oral, 3.125 mg/kg, read-out: Plasma (24 h) concentration)?
**A.** The concentration at 24 h was 0 nM.

**Q.** And the concentration at 6 h ([4]; mouse, oral, 6.25 mg/kg)?
**A.** The concentration at 6 h was 323 nM.

**Q.** What about the concentration at 24 h ([4]; mouse, oral, 6.25 mg/kg, read-out: Plasma (24 h) concentration) of the same compound?
**A.** The concentration at 24 h was 13.1 nM.

**Q.** And the concentration at 24 h ([4]; mouse, oral, 12.5 mg/kg, 24-hour timepoint, based on plasma protein binding in mice of 94%, read-out: free drug concentration in plasma)?
**A.** The concentration at 24 h was ~6 nM and ~2 ng/mL.

**Q.** And the concentration at 24 h ([4]; mouse, oral, 12.5 mg/kg, at 24 hours, approximate, read-out: minimum (total) plasma concentration corresponding to inhibition of pS296 Chk1)?
**A.** The concentration at 24 h was roughly 100 nM.

**Q.** And the concentration at 24 h ([4]; mouse, oral, 12.5 mg/kg, at 24 hours, read-out: minimum (total) plasma concentration corresponding to inhibition of pS296 Chk1)?
**A.** Its concentration at 24 h is roughly 40 ng/mL.

**Q.** And the concentration at 24 h ([4]; mouse, oral, 12.5 mg/kg, read-out: Plasma (24 h) concentration)?
**A.** The concentration at 24 h was 78 ± 27 nM.

**Q.** And the Kp ([4]; mouse, tumor, oral, HT29 xenograft mice, read-out: exposure in the tumor relative to plasma)?
**A.** The Kp was greater than 10.

**Q.** What about the antitumor activity (KPC-1 pancreatic cancer) of the same compound?
**A.** The antitumor activity was “Significant, dose-dependent antitumor activity”.

**Q.** What about the antitumor activity [5] of the same compound?
**A.** Its antitumor activity is “Significant, dose-dependent antitumor activity”.
